Experimental data: PubChem BioAssay AID1259407 (Chemical Carcinogenesis Research Information System (CCRIS), 2018)
The source made the active and inactive calls. No rule for the calls is given here.

Tested on: CCRIS mutagenicity, Ames/micronucleus/aberration tests
Test: CCRIS mutagenicity studies
[1] = Test System: MOUSE LYMPHOMA, Strain/Indicator: L5178Y (TK+/TK-), Metabolic Activation: NONE, Method: SUSPENSION/PLATE
[2] = Test System: MOUSE LYMPHOMA, Strain/Indicator: L5178Y (TK+/TK-), Metabolic Activation: RAT, LIVER, S-9, AROCLOR 1254, Method: SUSPENSION/PLATE
[3] = Test System: AMES SALMONELLA TYPHIMURIUM, Strain/Indicator: TA98, Metabolic Activation: NONE, Method: STANDARD PLATE
[4] = Test System: AMES SALMONELLA TYPHIMURIUM, Strain/Indicator: TA98, Metabolic Activation: RAT, LIVER, S-9, AROCLOR 1254, Method: STANDARD PLATE
[5] = Test System: AMES SALMONELLA TYPHIMURIUM, Strain/Indicator: TA100, Metabolic Activation: NONE, Method: STANDARD PLATE
[6] = Test System: AMES SALMONELLA TYPHIMURIUM, Strain/Indicator: TA100, Metabolic Activation: RAT, LIVER, S-9, AROCLOR 1254, Method: STANDARD PLATE

Measured: mutagenic call

N#CC(O)c1ccccc1 (stereo unspecified)
inactive: Test System: AMES SALMONELLA TYPHIMURIUM, Strain/Indicator: TA97, Metabolic Activation: HAMSTER, LIVER, S-9, AROCLOR 1254 (10%), Method: PREINCUBATION inactive; negative | Test System: AMES SALMONELLA TYPHIMURIUM, Strain/Indicator: TA97, Metabolic Activation: HAMSTER, LIVER, S-9, AROCLOR 1254 (30%), Method: PREINCUBATION inactive; negative | Test System: AMES SALMONELLA TYPHIMURIUM, Strain/Indicator: TA97, Metabolic Activation: NONE, Method: PREINCUBATION inactive; negative | Test System: AMES SALMONELLA TYPHIMURIUM, Strain/Indicator: TA97, Metabolic Activation: RAT, LIVER, S-9, AROCLOR 1254 (10%), Method: PREINCUBATION inactive; negative | Test System: AMES SALMONELLA TYPHIMURIUM, Strain/Indicator: TA97, Metabolic Activation: RAT, LIVER, S-9, AROCLOR 1254 (30%), Method: PREINCUBATION inactive; negative | Test System: AMES SALMONELLA TYPHIMURIUM, Strain/Indicator: TA98, Metabolic Activation: HAMSTER, LIVER, S-9, AROCLOR 1254 (10%), Method: PREINCUBATION inactive; negative | Test System: AMES SALMONELLA TYPHIMURIUM, Strain/Indicator: TA98, Metabolic Activation: HAMSTER, LIVER, S-9, AROCLOR 1254 (30%), Method: PREINCUBATION inactive; negative | Test System: AMES SALMONELLA TYPHIMURIUM, Strain/Indicator: TA98, Metabolic Activation: NONE, Method: PREINCUBATION inactive; negative | Test System: AMES SALMONELLA TYPHIMURIUM, Strain/Indicator: TA98, Metabolic Activation: RAT, LIVER, S-9, AROCLOR 1254 (10%), Method: PREINCUBATION inactive; negative | Test System: AMES SALMONELLA TYPHIMURIUM, Strain/Indicator: TA98, Metabolic Activation: RAT, LIVER, S-9, AROCLOR 1254 (30%), Method: PREINCUBATION inactive; negative | Test System: AMES SALMONELLA TYPHIMURIUM, Strain/Indicator: TA100, Metabolic Activation: HAMSTER, LIVER, S-9, AROCLOR 1254 (10%), Method: PREINCUBATION inactive; negative | Test System: AMES SALMONELLA TYPHIMURIUM, Strain/Indicator: TA100, Metabolic Activation: HAMSTER, LIVER, S-9, AROCLOR 1254 (30%), Method: PREINCUBATION inactive; negative | Test System: AMES SALMONELLA TYPHIMURIUM, Strain/Indicator: TA100, Metabolic Activation: NONE, Method: PREINCUBATION inactive; negative | Test System: AMES SALMONELLA TYPHIMURIUM, Strain/Indicator: TA100, Metabolic Activation: RAT, LIVER, S-9, AROCLOR 1254 (10%), Method: PREINCUBATION inactive; negative | Test System: AMES SALMONELLA TYPHIMURIUM, Strain/Indicator: TA100, Metabolic Activation: RAT, LIVER, S-9, AROCLOR 1254 (30%), Method: PREINCUBATION inactive; negative | Test System: AMES SALMONELLA TYPHIMURIUM, Strain/Indicator: TA1535, Metabolic Activation: HAMSTER, LIVER, S-9, AROCLOR 1254 (10%), Method: PREINCUBATION inactive; negative | Test System: AMES SALMONELLA TYPHIMURIUM, Strain/Indicator: TA1535, Metabolic Activation: HAMSTER, LIVER, S-9, AROCLOR 1254 (30%), Method: PREINCUBATION inactive; negative | Test System: AMES SALMONELLA TYPHIMURIUM, Strain/Indicator: TA1535, Metabolic Activation: NONE, Method: PREINCUBATION inactive; negative | Test System: AMES SALMONELLA TYPHIMURIUM, Strain/Indicator: TA1535, Metabolic Activation: RAT, LIVER, S-9, AROCLOR 1254 (10%), Method: PREINCUBATION inactive; negative | Test System: AMES SALMONELLA TYPHIMURIUM, Strain/Indicator: TA1535, Metabolic Activation: RAT, LIVER, S-9, AROCLOR 1254 (30%), Method: PREINCUBATION inactive; negative

O=C(O)c1c(Cl)c(Cl)c(Cl)c(Cl)c1-c1c2cc(I)c(=O)c(I)c-2oc2c(I)c(O)c(I)cc12
inactive: End Point: IN VIVO MICRONUCLEUS, Test System: BONE MARROW POLYCHROMATIC ERYTHROCYTES, Species: MOUSE, Strain/Sex: DDY/MALE, Route: IP inactive; negative

Cc1cc(C)c(N=Nc2c(O)c(S(=O)(=O)O)cc3cc(S(=O)(=O)O)ccc23)cc1C
active: Test System: AMES SALMONELLA TYPHIMURIUM, Strain/Indicator: TA100, Metabolic Activation: HAMSTER, LIVER, S-9, Method: PREINCUBATION (PRIVAL METHOD) active; positive | [1] active; positive. reevaluation of results: equivocal | [2] active; positive. reevaluation of results: equivocal

O=C1C(=O)c2cccc3cccc1c23
inactive: Test System: AMES SALMONELLA TYPHIMURIUM, Strain/Indicator: TA98, Metabolic Activation: HAMSTER, LIVER, S-9, AROCLOR 1254, Method: STANDARD PLATE inactive; negative | [5] inactive; negative | [6] inactive; negative
active: [3] active; positive | [4] active; positive | Test System: AMES SALMONELLA TYPHIMURIUM, Strain/Indicator: TA100, Metabolic Activation: HAMSTER, LIVER, S-9, AROCLOR 1254, Method: STANDARD PLATE active; positive | [1] active; positive. reevaluation of results: equivocal | [2] active; positive. reevaluation of results: equivocal

CN(C)c1ccc(N=Nc2ccc(S(=O)(=O)O)cc2)cc1
active: Test System: Ames Salmonella typhimurium, Strain/Indicator: TA102, Metabolic Activation: Rat, Liver, S-9, Aroclor 1254, Method: Preincubation active; positive. statistically significant at highest dose. | Test System: Ames Salmonella typhimurium, Strain/Indicator: TA104, Metabolic Activation: Rat, Liver, S-9, Aroclor 1254, Method: Preincubation active; positive. statistically significant at highest dose.
inactive: Test System: Ames Salmonella typhimurium, Strain/Indicator: TA102, Metabolic Activation: None, Method: Preincubation inactive; negative | Test System: Ames Salmonella typhimurium, Strain/Indicator: TA104, Metabolic Activation: None, Method: Preincubation inactive; negative

CC(=O)ON(OCc1ccc(Oc2ccccc2)cc1)C(=O)c1ccccc1
active: [5] active; positive | Test System: AMES SALMONELLA TYPHIMURIUM, Strain/Indicator: TA100, Metabolic Activation: RAT, S-9, AROCLOR, Method: STANDARD PLATE active; positive

Cn1c([N+](=O)[O-])cnc1C1NC(CO)(CO)CO1 (stereo unspecified)
active: Test System: AMES SALMONELLA TYPHIMURIUM, Strain/Indicator: TA97, Metabolic Activation: NONE, Method: STANDARD PLATE active; positive | Test System: AMES SALMONELLA TYPHIMURIUM, Strain/Indicator: TA97, Metabolic Activation: RAT, LIVER, S-9, AROCLOR 1254, Method: STANDARD PLATE active; positive | [3] active; positive | [4] active; positive | [5] active; positive | [6] active; positive | Test System: AMES SALMONELLA TYPHIMURIUM, Strain/Indicator: TA102, Metabolic Activation: NONE, Method: STANDARD PLATE active; positive | Test System: AMES SALMONELLA TYPHIMURIUM, Strain/Indicator: TA102, Metabolic Activation: RAT, LIVER, S-9, AROCLOR 1254, Method: STANDARD PLATE active; positive
